Drawing on PubChem BioAssay (NCI), this text covers GI50 and TGI for 17 molecules.

Among the test systems are RXF 393 renal; HL-60(TB) leukemia; HCT-116 colon; SK-MEL-5 melanoma; RPMI-8226 leukemia; EKVX NSCLC; SNB-19 CNS; MALME-3M melanoma; HOP-92 NSCLC; SK-OV-3 ovarian.
Holding throughout (test): NCI tumour cell line growth inhibition, 48 h

“And” between values parts separate entries of the source, which are not always exact repeats. Equal values may be shown once.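 Grown in 96-well plates, cells were treated for 48 hours with each compound at five concentrations. Insufficient inhibition: endpoint recorded as highest concentration tested. GI50 is the concentration that inhibits growth by half. TGI denotes the concentration required for complete inhibition of growth.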

As for `COc1ccc(Nc2nnc(-c3cc(O)ccc3O)s2)cc1`, the GI50 in the test with RXF 393 renal was 30.6 µM; in the test on HL-60(TB) leukemia it was 4.57 µM; in the test with HCT-116 colon it was 21.9 µM; in the test on SK-MEL-5 melanoma it was 10.3 µM; in the test on RPMI-8226 leukemia, 8.67 µM; in the test with EKVX NSCLC, over 50 µM. Further, in the test on SNB-19 CNS, the GI50 is over 50 µM. The TGI with RXF 393 renal is over 50 µM; in the test on HL-60(TB) leukemia, over 50 µM; in the test on HCT-116 colon, over 50 µM; in the test with SK-MEL-5 melanoma it was 27.2 µM; in the test with RPMI-8226 leukemia, 21.1 µM; in the test on EKVX NSCLC, over 50 µM. For the same molecule, in the test on SNB-19 CNS, the TGI was over 50 µM.
As to `O=C1/C(=C/c2ccc(Cl)cc2)CCC1CCN1CCOCC1` (stereo not drawn), the TGI with RXF 393 renal is over 100 µM; in the test on HL-60(TB) leukemia, 85.2 µM; in the test on MALME-3M melanoma, over 100 µM; with HCT-116 colon, over 100 µM; in the test on SK-MEL-5 melanoma it was over 100 µM; in the test with RPMI-8226 leukemia it was 64.4 µM. For the same molecule, the TGI in the test on HOP-92 NSCLC, in the test with EKVX NSCLC and with SNB-19 CNS was over 100 µM throughout.
As for `C#C[C@]1(O)CCC2C3CCc4cc(O)ccc4C3CC[C@@]21C` (stereo partly drawn), the GI50 in the test on RXF 393 renal was 4.66 µM; in the test with HL-60(TB) leukemia, 3.45 µM; with MALME-3M melanoma it was 7.08 µM; in the test on SK-OV-3 ovarian, 3.45 µM; in the test with HCT-116 colon, 4.68 µM; with SK-MEL-5 melanoma, 2.24 µM. The GI50 was 5.91 µM in the test with HOP-92 NSCLC, 1.66 µM in the test with EKVX NSCLC and 7.59 µM with SNB-19 CNS. Moreover, the TGI with RXF 393 renal stood at 17.7 µM; with HL-60(TB) leukemia it was 24.2 µM; in the test with MALME-3M melanoma, 22.4 µM; in the test with SK-OV-3 ovarian, 49.6 µM; in the test with HCT-116 colon, 20 µM; with SK-MEL-5 melanoma it was 7.6 µM. The TGI with HOP-92 NSCLC is 19.9 µM; in the test on EKVX NSCLC, over 100 µM; in the test with SNB-19 CNS, over 100 µM.
As to `O=C1/C(=C/c2cccc(Cl)c2Cl)N=C(c2ccccc2)N1C1CC1`, the GI50 in the test with RXF 393 renal is 23.9 µM; in the test with HL-60(TB) leukemia it was 15.6 µM; in the test with HCT-116 colon, 8.98 µM; with SK-MEL-5 melanoma, 11.4 µM; in the test with RPMI-8226 leukemia, 3.88 µM; with EKVX NSCLC, 9.9 µM. In the test on SNB-19 CNS, the GI50 is 12.7 µM. In addition, the TGI was over 50 µM in the test on RXF 393 renal; 41.4 µM with HL-60(TB) leukemia; 18.9 µM in the test on HCT-116 colon; 24.7 µM in the test with SK-MEL-5 melanoma; 14.5 µM in the test with RPMI-8226 leukemia; 22.2 µM in the test with EKVX NSCLC. This molecule also came in with a TGI with SNB-19 CNS of 33.2 µM.
Take `O=C1OCC2=C1C(c1cccc(Br)c1)c1cc3c(cc1N2CCO)CCC3` (stereo not drawn): the GI50 in the test on RXF 393 renal is 0.0263 µM; in the test on HL-60(TB) leukemia it was 0.0763 µM; in the test with MALME-3M melanoma, 0.066 µM; in the test with SK-OV-3 ovarian, 0.102 µM; with HCT-116 colon, 0.0904 µM; in the test on SK-MEL-5 melanoma, 0.0482 µM. The GI50 with RPMI-8226 leukemia is 0.183 µM; in the test on EKVX NSCLC, 0.682 µM; in the test with SNB-19 CNS it was 0.209 µM. Also, the TGI with RXF 393 renal came out at 1.61 µM; in the test on HL-60(TB) leukemia, 0.444 µM; in the test on MALME-3M melanoma, 12.1 µM; with SK-OV-3 ovarian, 1.58 µM; in the test with HCT-116 colon, 3.04 µM; in the test with SK-MEL-5 melanoma, 0.428 µM. For the same molecule, the TGI stood at 10 µM with RPMI-8226 leukemia, 19.5 µM with EKVX NSCLC and 9.98 µM with SNB-19 CNS.
With `COc1cccc(C2=NC(C(C)C)CO2)c1` (stereo not drawn), the TGI with RXF 393 renal, with HL-60(TB) leukemia, in the test with MALME-3M melanoma, in the test with SK-OV-3 ovarian, in the test with SK-MEL-5 melanoma and in the test with RPMI-8226 leukemia was over 100 µM each time. The TGI in the test with EKVX NSCLC and with SNB-19 CNS was over 100 µM throughout.
As for `Cc1nn(-c2ccc(Cl)cc2)c2nc3c(nc12)C(=O)c1ccccc1-3`, the GI50 with RXF 393 renal is over 100 µM; with HL-60(TB) leukemia, over 100 µM; in the test on MALME-3M melanoma it was over 100 µM; with SK-OV-3 ovarian, 47.3 µM; in the test with SK-MEL-5 melanoma, over 100 µM; in the test on RPMI-8226 leukemia, over 100 µM. In addition, the GI50 in the test on EKVX NSCLC and with SNB-19 CNS was over 100 µM throughout. The TGI with RXF 393 renal, with HL-60(TB) leukemia, with MALME-3M melanoma, with SK-OV-3 ovarian, in the test with SK-MEL-5 melanoma and in the test with RPMI-8226 leukemia was over 100 µM in each case. The TGI with EKVX NSCLC and in the test with SNB-19 CNS was over 100 µM in each case.
As to `COc1ccc(C(=O)/C=C/c2cc(-c3cc(OC)c(OC)c(OC)c3)n[nH]2)cc1OC`, the GI50 in the test on RXF 393 renal was 1.35 µM; in the test with HL-60(TB) leukemia, 1.44 µM; in the test on MALME-3M melanoma, 1.99 µM; in the test with SK-OV-3 ovarian, 2.79 µM; in the test on SK-MEL-5 melanoma it was 1.65 µM; with RPMI-8226 leukemia, 0.241 µM. The GI50 in the test with SNB-19 CNS was 1.42 µM. The TGI with RXF 393 renal turned out to be 2.66 µM; in the test with HL-60(TB) leukemia, 4.18 µM; with MALME-3M melanoma it was 3.68 µM; in the test with SK-OV-3 ovarian, 7.83 µM; with SK-MEL-5 melanoma, 3.03 µM; in the test on RPMI-8226 leukemia it was 1.11 µM. Moreover, in the test with SNB-19 CNS, the TGI stood at 3.01 µM.
Turning to `C=C(Cl)C(Br)(CCl)CCC(Br)C(C)(C)Cl` (stereo not drawn), the TGI with RXF 393 renal was 6.98 µM and 5.42 µM; with HL-60(TB) leukemia, 5.19 µM; in the test with MALME-3M melanoma, 8.51 µM and 4.96 µM; with SK-OV-3 ovarian, 27.1 µM; in the test on HCT-116 colon, 3.14 µM and 3.21 µM; in the test with SK-MEL-5 melanoma, 6.96 µM and 6.1 µM. Moreover, the figures for the TGI in the test with RPMI-8226 leukemia, in the test with EKVX NSCLC and in the test on SNB-19 CNS were 3.06 µM, 12.8 µM and 8.73 µM, respectively. In addition, in the test with MALME-3M melanoma, the GI50 was 2.22 µM.
Consider `CC(C)Oc1ccc2cc(-c3nn(CC4CCNCC4)c4ncnc(N)c34)ccc2c1`, for which the GI50 in the test on RXF 393 renal is 2.78 µM; in the test with HL-60(TB) leukemia, 6.45 µM; with SK-OV-3 ovarian, 13.8 µM; in the test on HCT-116 colon, 6.78 µM; in the test with SK-MEL-5 melanoma, 11.6 µM; with RPMI-8226 leukemia, 3.1 µM. For the same molecule, the GI50 is 6.37 µM in the test on HOP-92 NSCLC, 13.6 µM in the test on EKVX NSCLC and 12.7 µM with SNB-19 CNS. For the same molecule, the TGI in the test with RXF 393 renal was 9.73 µM; in the test with HL-60(TB) leukemia, 20.6 µM; in the test on SK-OV-3 ovarian, 27.9 µM; in the test on HCT-116 colon, 19.8 µM; with SK-MEL-5 melanoma, 23.8 µM; in the test on RPMI-8226 leukemia, 12.9 µM. Further, the TGI in the test with HOP-92 NSCLC stood at 20.8 µM; in the test on EKVX NSCLC it was 26.9 µM; in the test on SNB-19 CNS, 26 µM.
For the molecule `O=C1C=CC(=O)c2cc3cc(CBr)ccc3cc21`, the GI50 with RXF 393 renal is 11 µM; with MALME-3M melanoma it was 3.1 µM; with SK-OV-3 ovarian, 19.1 µM; with HCT-116 colon, 0.606 µM; with SK-MEL-5 melanoma, 14.9 µM; in the test with HOP-92 NSCLC, 3.18 µM. The GI50 in the test on EKVX NSCLC is 24.1 µM; in the test with SNB-19 CNS, 18.1 µM. For the same molecule, the TGI is 27.9 µM in the test with RXF 393 renal; 0.2 µM in the test on HL-60(TB) leukemia; 29.3 µM in the test on MALME-3M melanoma; over 57.6 µM in the test on SK-OV-3 ovarian; 1.89 µM in the test on HCT-116 colon; 36 µM in the test on SK-MEL-5 melanoma. Further, the TGI in the test with HOP-92 NSCLC is 9.93 µM; with EKVX NSCLC it was 55.7 µM; with SNB-19 CNS it was over 55 µM.
As to `C1CN2CCN3CCN4CCN1[P+]243`, the TGI with RXF 393 renal, in the test with HL-60(TB) leukemia, in the test on MALME-3M melanoma, with SK-OV-3 ovarian, with HCT-116 colon and in the test on SK-MEL-5 melanoma was over 100 µM throughout. In addition, the TGI in the test with RPMI-8226 leukemia, in the test on EKVX NSCLC and with SNB-19 CNS was over 100 µM each time.
`COc1cc(NCc2ccc3nc(N)nc(N)c3c2C)cc(OC)c1OC` (tested in a mixture with another compound): the TGI with RXF 393 renal was 27.5 µM; in the test on HL-60(TB) leukemia, 29.4 µM and 26.3 µM; with MALME-3M melanoma, 30 µM and 49.4 µM; with HCT-116 colon it was 33 µM; with EKVX NSCLC, 26.6 µM; with SNB-19 CNS, 113 µM. Besides, the GI50 was 0.000746 µM in the test with HL-60(TB) leukemia, 0.0189 µM with SK-OV-3 ovarian, 0.000185 µM in the test on HCT-116 colon and 0.0233 µM in the test with HOP-92 NSCLC.
In the case of `CCOc1ccc(NC(=O)CC#N)cc1`, the TGI in the test on RXF 393 renal, with HL-60(TB) leukemia, in the test with MALME-3M melanoma, in the test on SK-OV-3 ovarian, with HCT-116 colon and in the test with SK-MEL-5 melanoma was over 100 µM in each case. The TGI in the test on EKVX NSCLC and with SNB-19 CNS was over 100 µM each time.
Consider `C1=CC(N(c2ccccc2)C2C=CCCC2)CCC1` (stereo not drawn), for which the TGI in the test on RXF 393 renal, in the test on HL-60(TB) leukemia, with SK-OV-3 ovarian, with HCT-116 colon, in the test with SK-MEL-5 melanoma and with RPMI-8226 leukemia was over 100 µM each time. In addition, the TGI in the test on HOP-92 NSCLC and in the test on EKVX NSCLC was over 100 µM throughout.
As to `COc1cc2c(cc1OCCCNC(=O)c1cccc3c(=O)c4ccccc4[nH]c13)N=C[C@@H]1CCCN1C2=O`, the GI50 in the test with RXF 393 renal was 0.0865 µM; in the test with SK-OV-3 ovarian, 5.58 µM; with HCT-116 colon, under 0.01 µM; with HOP-92 NSCLC, under 0.01 µM; in the test with EKVX NSCLC, 0.0166 µM; with SNB-19 CNS it was under 0.0206 µM. Also, the TGI in the test with RXF 393 renal is 0.301 µM; in the test on HL-60(TB) leukemia, over 77 µM; in the test on MALME-3M melanoma, 0.388 µM; with SK-OV-3 ovarian, over 100 µM; in the test with HCT-116 colon, over 100 µM; in the test on HOP-92 NSCLC, 49.6 µM. The TGI in the test on EKVX NSCLC was 0.14 µM; in the test on SNB-19 CNS it was over 45.7 µM.
As for `CN=C1CC2c3cc(OC)c(OC)cc3CCN2C2=C1C(=O)CC(C)(C)C2` (stereo not drawn), the TGI in the test on RXF 393 renal, in the test with HL-60(TB) leukemia, with MALME-3M melanoma, in the test with HCT-116 colon, in the test on SK-MEL-5 melanoma and in the test on HOP-92 NSCLC was over 100 µM in each case. Also, the TGI in the test on EKVX NSCLC and with SNB-19 CNS was over 100 µM in each case.
